The record followed here is patent EP0059645A1, “Method and kit for identification of beta-lactamases” (NATIONAL RESEARCH DEVELOPMENT CORPORATION, priority 1981, dated 1982).

Marks after values point to notes of the source that are not given here.

The subject of one test is K1073. Briefly: Competitive assay with nitrocefin (RSAI). Format: biochemical, Klebsiella 1073. An excerpt:
(§1) It is convenient to express the results in terms of a Relative Substrate Affinity Index (RSAI) value.
(§2) RSAI = Concentration of competing substrate which gives 50% inhibition of ring-opening hydrolysis of the chromogenic substrate
(§3) Concentration of chromogenic substrate in the assay A high RSAI value therefore indicates a low affinity of the beta-lactamase for that competing substrate, and therefore predicts resistance of a beta-lactam competing substrate to hydrolysis by the beta-lactamase. Low RSAI values, in contrast, predict sensitivity to hydrolysis by a beta-lactamase.
(§4) Beta-lactam antibiotics which bind to the TEM-2 enzyme compete with nitrocefin in the assay. […] . This concentration of ampicillin is a direct estimate of the relative affinity of the TEM-2 enzyme for ampicillin. […] . The RSAI value was therefore 1.3.

Test [1] has as its target T1, PSE-1 (Pseudomonas aeruginosa, UniProt Q03170). Nature of the test: Competitive assay with nitrocefin (RSAI). Type of test: biochemical, Ps.aerug. 1937E. More on the design: Normally, therefore, the beta-lactamase has to be extracted from the cells for the purpose of the present invention; endogenous in cells.
Test [2] concerns the target T2, OXA-1 (Escherichia coli, UniProt P13661). Nature of the test: Competitive assay with nitrocefin (RSAI). Details: the beta-lactamase has to be extracted from the cells for the purpose of the present invention; made in house; host or cells: E. coli 1527E according to the earlier reading (crude cell extract). Format: biochemical, E. coli 1527E.
Test [3] addresses T3, SHV-1 (Escherichia coli, UniProt P0AD63). Nature of the test: 6-well visual test with nitrocefin. Conditions: well D: Mecillinam 20:1 to nitrocefin; 3 minutes, room temperature.
Test [4] has as its target T4, PSE-4 (Pseudomonas aeruginosa, UniProt P16897). Nature of the test: 6-well visual test with nitrocefin. The following applies: well D: Mecillinam 20:1 to nitrocefin; 3 minutes, room temperature.
The target of test [5] is T1, PSE-1. Briefly: 6-well visual test with nitrocefin. Conditions: well D: Mecillinam 20:1 to nitrocefin; 3 minutes, room temperature.
For test [6], the target named is T5, PSE-2 (Pseudomonas aeruginosa, UniProt P14489). Briefly: 6-well visual test with nitrocefin. The following applies: well D: Mecillinam 20:1 to nitrocefin; 3 minutes, room temperature.
Test [7] has as its target T6, Chromosomal, induced beta-lactamase enzyme (Pseudomonas aeruginosa, UniProt P24735).
T6 construct: Normally, therefore, the beta-lactamase has to be extracted from the cells for the purpose of the present invention; endogenous in cells; host or cells: Pseudomonas aeruginosa 1937E grown with ampicillin
Nature of the test: Competitive assay with nitrocefin (RSAI). Format: biochemical, Ps.aerug. 1937E + ampicillin.

Test [8] has as its system HMS-1. Briefly: 6-well visual test with nitrocefin. Conditions: well D: Mecillinam 20:1 to nitrocefin; 3 minutes, room temperature.
In test [9] the target is T2, OXA-1. Nature of the test: 6-well visual test with nitrocefin. The following applies: well D: Mecillinam 20:1 to nitrocefin; 3 minutes, room temperature.
The next test addresses Ps +AMP (Chromosomal) (Pseudomonas aeruginosa, UniProt P24735). Nature of the test: 6-well visual test with nitrocefin. The following applies: well D: Mecillinam 20:1 to nitrocefin; 3 minutes, room temperature.
A further test addresses E. cloacae (Enterobacter cloacae, UniProt P05364). Briefly: 6-well visual test with nitrocefin. Conditions: well D: Mecillinam 20:1 to nitrocefin; 3 minutes, room temperature.
Test [10] concerns the target T3, SHV-1. Nature of the test: Competitive assay with nitrocefin (RSAI). Type of test: biochemical, E. coli 2008E. Details: the beta-lactamase has to be extracted from the cells for the purpose of the present invention; made in house; host or cells: E. coli 2008E (crude cell extract).
Test [11] addresses T7, OXA-3 (Pseudomonas aeruginosa, UniProt Q51429). Nature of the test: 6-well visual test with nitrocefin. The following applies: well D: Mecillinam 20:1 to nitrocefin; 3 minutes, room temperature.
The target of test [12] is T8, TEM-1 (Escherichia coli, UniProt P62593). Briefly: Competitive assay with nitrocefin (RSAI). Format: biochemical, E. coli 2136E. Details: the beta-lactamase has to be extracted from the cells for the purpose of the present invention; made in house; host or cells: E. coli 2136E (plasmid-bearing strain; crude cell extract).
Test [13] deals with T7, OXA-3. Briefly: Competitive assay with nitrocefin (RSAI). Type of test: biochemical, E. coli R57B. More on the design: Normally, therefore, the beta-lactamase has to be extracted from the cells for the purpose of the present invention; endogenous in cells.
Test [14] concerns the target T4, PSE-4. Briefly: Competitive assay with nitrocefin (RSAI). Details: Normally, therefore, the beta-lactamase has to be extracted from the cells for the purpose of the present invention; endogenous in cells. Type of test: biochemical, Ps.aerug. 1559E.
The target of test [15] is T8, TEM-1. Briefly: 6-well visual test with nitrocefin. The following applies: well D: Mecillinam 20:1 to nitrocefin; 3 minutes, room temperature.
Test [16] has as its target T9, TEM-2 (Escherichia coli, UniProt P62593, Q37K). Nature of the test: 6-well visual test with nitrocefin. The following applies: well D: Mecillinam 20:1 to nitrocefin; 3 minutes, room temperature.
The target in test [17] is T10, Chromosomal, constitutive beta-lactamase enzyme (Enterobacter cloacae, UniProt P05364).
T10 construct: Normally, therefore, the beta-lactamase has to be extracted from the cells for the purpose of the present invention; endogenous in cells
Briefly: Competitive assay with nitrocefin (RSAI). Type of test: biochemical, E. cloacae.

The target of test [18] is T11, OXA-2 (Escherichia coli, UniProt P0A1V9). Briefly: 6-well visual test with nitrocefin. The following applies: well D: Mecillinam 20:1 to nitrocefin; 3 minutes, room temperature.
The subject of test [19] is PSE-3. Briefly: 6-well visual test with nitrocefin. The following applies: well D: Mecillinam 20:1 to nitrocefin; 3 minutes, room temperature.
Test [20] has as its system PSE-3. Briefly: Competitive assay with nitrocefin (RSAI). Type of test: biochemical, Ps.aerug. 1920E.
Another test deals with K17. Briefly: Competitive assay with nitrocefin (RSAI). Type of test: biochemical, Klebsiella 17.
From the text: as §1, §2, §3, §4

A further test relates to K10317. Briefly: Competitive assay with nitrocefin (RSAI). Format: biochemical, K.aerog. 10317.
From the text: as §1, §2, §3, §4

Test [21] deals with T11, OXA-2. Briefly: Competitive assay with nitrocefin (RSAI). Type of test: biochemical, E. coli R46. Details: the beta-lactamase has to be extracted from the cells for the purpose of the present invention; made in house; host or cells: E. coli carrying R46 according to the earlier reading (crude cell extract).
Test [22] addresses Chromosomal, hyper-induced beta-lactamase enzyme (Escherichia coli, UniProt P00811). Nature of the test: Competitive assay with nitrocefin (RSAI). More on the design: Normally, therefore, the beta-lactamase has to be extracted from the cells for the purpose of the present invention; endogenous in cells; host or cells: E. coli SNU 35 (artificially produced strain). Type of test: biochemical, E. coli SNU35.

Test [23] concerns HMS-1. Nature of the test: Competitive assay with nitrocefin (RSAI). Format: biochemical, E. coli 1946.
In test [24] the target is T9, TEM-2. Nature of the test: Competitive assay with nitrocefin (RSAI). Format: biochemical, E. coli 1725E.
From the text: as §1, §2, §3, §4

Test [25] deals with T5, PSE-2. Briefly: Competitive assay with nitrocefin (RSAI). Details: Normally, therefore, the beta-lactamase has to be extracted from the cells for the purpose of the present invention; endogenous in cells. Type of test: biochemical, Ps.aerug. 1973E.

For `CC1(C)S[C@@H]2[C@H](/N=C/N3CCCCCC3)C(=O)N2[C@H]1C(=O)O` [Mecil-linam, Mecillinam], the RSAI in the test on K1073 is 102; at PSE-1 [1] it was 66; at OXA-1 [2], 400; in test [7], 68; on SHV-1 [10], 80; at TEM-1 [12], 90. Also, the RSAI on OXA-3 [13] is reported as 30; at PSE-4 [14], 140; in test [17], 1.3*; with PSE-3 [20], 15; in the test on K17, 260; in the test on K10317 it was 80. For the same molecule, the RSAI at OXA-2 [21] is recorded as 100; in test [22] it was 0.7*; with HMS-1 [23] it was 2; at TEM-2 [24], 80; on PSE-2 [25], 450. Also, the “Score in 6-well visual test” value on SHV-1 [3] is “++”; at PSE-4 [4] it was “++”; on PSE-1 [5], “++”; at PSE-2 [6], “++”; in the test on HMS-1 [8], “-”; on OXA-1 [9], “++”. The “Score in 6-well visual test” value is reported as “+” on Ps +AMP (Chromosomal); “-” at E. cloacae; “+” on OXA-3 [11]; “++” on TEM-1 [15]; “++” at TEM-2 [16]; “+” at OXA-2 [18]. Also, in the test with PSE-3 [19], the “Score in 6-well visual test” value is given as “+”.

As for `CCN1CCN(C(=O)N[C@@H](C(=O)N[C@@H]2C(=O)N3C(C(=O)O)=C(CSc4nnnn4C)CS[C@H]23)c2ccc(O)cc2)C(=O)C1=O` [Cefopera-zone, cefoperazone], the RSAI in the test on K1073 came to 2.2; at PSE-1 [1], 0.019; at OXA-1 [2], 4.5; in test [7], 0.5; on SHV-1 [10], 4.5; on TEM-1 [12], 8. The RSAI on OXA-3 [13] was 2; on PSE-4 [14], 0.014; in [17] it was 1.3; in the test with PSE-3 [20], 0.07; in the test on K17 it was 0.006; in the test on K10317, 5. The RSAI on OXA-2 [21] was determined as 2; in [22] it was 1.9; with HMS-1 [23] it was 0.2; at TEM-2 [24] it was 10; on PSE-2 [25] it was 0.48.

For the molecule `CC1(C)S[C@@H]2[C@H](NC(=O)[C@H](N)c3ccc(O)cc3)C(=O)N2[C@H]1C(=O)O` [Amoxy-cillin, amoxycillin], the RSAI is on record as 1.7 in the test with K1073; 0.9 on PSE-1 [1]; 1.2 at OXA-1 [2]; 0.035 in test [7]; 2.8 on SHV-1 [10]; 1.3 at TEM-1 [12]. Besides, the RSAI is reported as 8.6 at OXA-3 [13]; 1 on PSE-4 [14]; 0.05 in [17]; 1.5 with PSE-3 [20]; 1.3 in the test with K17; 7 in the test on K10317. Further, the RSAI at OXA-2 [21] is reported as 8; in test [22], 0.02; in the test on HMS-1 [23], 0.8; on TEM-2 [24], 2.2; on PSE-2 [25] it was 2.2.

On to `CC(=O)OCC1=C(C(=O)O)N2C(=O)[C@@H](NC(=O)Cc3cccs3)[C@H]2SC1` [Cephalo-thin, Cephalothin], for which the RSAI was 5.8 in the test with K1073; 4 at PSE-1 [1]; 4 at OXA-1 [2]; 0.7 in test [7]; 7 at SHV-1 [10]; 10 at TEM-1 [12]. For the same molecule, the RSAI at OXA-3 [13] is recorded as 0.4; on PSE-4 [14], 6; in test [17], 0.6; with PSE-3 [20] it was 0.76; with K17 it was 1.8; with K10317, 7. Also, the RSAI at OXA-2 [21] turned out to be 0.7; in test [22] it was 0.8; in the test with HMS-1 [23], 1; on TEM-2 [24], 15; at PSE-2 [25], 0.54.

With `C[C@@H](O)[C@H]1C(=O)N2C(C(=O)O)=C(SCCN=CN)C[C@H]12` [MK 0787 (N-Formimidoyl-thienamycin), N-Formimidoyl-thienamycin], the RSAI with K1073 is listed as 1.9; at PSE-1 [1], 19.4; on OXA-1 [2], 0.6*; in [7] it was 0.015; on SHV-1 [10] it was 1.2; on TEM-1 [12] it was 0.1. The RSAI was 0.0016* at OXA-3 [13]; 15 on PSE-4 [14]; 0.03 in test [17]; 0.5 with PSE-3 [20]; 2.1 with K17; 0.24 with K10317. For the same molecule, the RSAI is 0.005* on OXA-2 [21]; 2 in test [22]; 1.2 in the test on HMS-1 [23]; 0.1 on TEM-2 [24]; 0.08 on PSE-2 [25].
